Reference: patent US20220358646A1, “CELL ACTIVITY MACHINE LEARNING” (Q-STATE BIOSCIENCES, INC., priority 2021, published 2022)

Tests used:
[1] = tested on: iPSC-derived excitatory cortical neurons (NGN2) with loss of function knockout; assay: Optopatch functional phenotype reversal in knockout (KO) disease-model neurons versus wildtype control; type: cell-based, human; settings: for cell behavior projected onto phenotype/side effect space: KO cells, 8 concentrations from 0.28 to 600 μM, two replicates; for reversal of disease-model functional phenotype (radar plot of action potential features): KO disease-model cells stimulated in presence of compound, normalized to control cells
Protocol: In this example, iPSC-derived excitatory cortical neurons (NGN2) were grown for 30 days in a culture. The neurons expressed Optopatch proteins as described in Example 1. Two sets of neurons were grown. The first was a wildtype control line.
The cells were stimulated using blue light as described in Example 1 and their action potentials recorded as voltage traces. Recordings were made of the control cells and disease-model cells when stimulated in the absence of any test compound. Recordings were also made of the disease-model cells when stimulated in the presence of the promiscuous potassium channel blocker 4-AP and the promiscuous sodium channel blocker lamotrigine.
FIG. 23 provides radar plots representing functional phenotypes generated by a machine learning system using action potential features extracted from the recorded action potentials when the cells were stimulated by blue light. The values for the features are normalized to the control cell recordings. […] The differences in the recorded traces, select features of which are provided on the radar plots, show the functional phenotype of the disease-model.
FIG. 24 is a diagram illustrating phenotype reversal and “side effects” described by mapping extracted action potential features on the ˜300-dimensional space of recorded parameters, only two of which are shown. Extracted features for the control cell (WT) wells (green) are clustered as are those for the KO cells (red). The vector between these populations represents the phenotype (red). Drug effects (blue) are deconstructed into components along (phenotype reversal) and orthogonal to (side effects) the phenotype vector. An ideal drug would undo the effects of the mutation and move the well from the KO cluster to the control cell cluster.
FIG. 25 is a plot showing many wells projected onto the phenotype/side effect space. WT and KO wells are well separated along the phenotype direction. Application of the two compounds (8 concentrations from 0.28 to 600 μM) from FIG. 25 have increasing effects on KO cell behavior as the concentration increases. […] The connected drug points are in order of increasing concentration, and the two lines are experimental replicates on two consecutive weeks of experiment.

[2] = tested on: hiPSC-derived motor neurons; assay: Optopatch optical stimulation and voltage recording of hiPSC-derived motor neurons before and after compound addition; type: cell-based, human
Excerpt: Human induced pluripotent stem cells (hiPSC) were differentiated into hiPSC-derived motor neurons. The cells expressed an optogenetic proteins from the Optopatch toolkit (optical stimulation plus optical voltage reporting, e.g., CheRiff & QuasAr), which allows simultaneous optical stimulation and recording of neuronal action potentials.
The channelrhodopsin CheRiff enables action potential stimulation with blue light and the voltage-sensitive fluorescent protein QuasAr enables high-speed electrical recordings with red light. A microscope, as disclosed herein, obtained simultaneous voltage recordings from >100 individual neurons over a large (0.5×4 mm) field of view (FOV) with 1 ms temporal resolution and high signal-to-noise ratio (SNR). A digital micromirror device (DMD) in the microscope projected a fully reconfigurable optical pattern to sequentially stimulate cells while recording from many post-synaptic partners. […]
In every trace the spikes were detected and the key spike shape and timing parameters were computed. […]
Pixels in the recording that captured fluorescence from the reporters of membrane potential in each neuron co-varied in time following that cell's unique firing pattern. […] Each FOV was recorded twice, before and after addition of potassium channel opener ML-213. […]

[3] = tested on: E18 rat hippocampal neurons; assay: Optopatch 96-well plate firing assay, alternating columns compound/vehicle; type: cell-based; settings: ML-213 at 1 μM versus vehicle wells
Protocol: E18 rat hippocampal neurons were cultured for 14 days and caused to express Optopatch proteins as described in Example 1. The cells were placed in wells of a 96-well plate. ML-213 at 1 μM was added to alternating columns of the plate and a control vehicle added to the remaining columns. The cells in all wells were stimulated and their action potentials recorded using a microscope as described in Example 1.
FIG. 30 provides the average firing rate during the blue light stimulus ramp for each well.
FIG. 32 provides a plot of the average number of spikes recorded for individual cells in each well during the blue light stimulus ramp.

[4] = tested on: E18 rat hippocampal neurons; assay: Optopatch functional phenotypes of compounds in cultured neurons; type: cell-based; settings: normalized to control vehicle, 14 days culture
Protocol: E18 rat hippocampal neurons were cultured for 14 days and caused to express Optopatch proteins as described in Example 1. The cells were stimulated in the presence of XE-991 (a Kv7.x blocker), ML-213 (a Kv7.x opener), a-Dendrotoxin (a Kv1.x blocker), OXO-M (a muscarinic agonist), 4AP (a promiscuous Kv blocker), Isradipine (a Cav1.x blocker), or a control vehicle. FIG. 26 provides radar plots representing generated functional phenotypes indicative of the drug-induced changes in neuronal spiking behavior along many dimensions. The action potential feature values were normalized to those for the cells simulated in the presence of the control vehicle. As shown in the radar plots, each compound provided a discernable and unique functional phenotype. […] FIG. 27 provides concentration response curves for the cells in the presence of varied concentrations of the compounds. Each symbol represents >100 cells in one well and all measurements were obtained in a single day. Thus, the present systems and methods can not only elucidate therapeutic responses of various compounds, but also show concentration-dependent responses. Moreover, as the measurements were taken in a single day, the presently disclosed systems and methods enable fast, high-throughput drug screening.

| SMILES | cell behavior projected onto phenotype/side effect space [1] | reversal of disease-model functional phenotype (radar plot of action potential features) [1] | neuronal excitability ([2]; 1 μM ML-213, same neurons before and after addition, blue light stimulus) | resting potential and action potential firing ([2]; hiPSC-derived motor neurons) | average firing rate during the blue light stimulus ramp [3] | drug-induced changes in neuronal spiking behavior (functional phenotype) [4] |
| --- | --- | --- | --- | --- | --- | --- |
| Nc1ccncc1 [4-AP] | moves cell behavior toward and beyond WT behavior | substantially reversed the phenotype |  |  |  |  |
| Cc1cc(C)c(NC(=O)C2CC3CCC2C3)c(C)c1 (stereo not drawn) [ML-213] |  |  | clear reduction in neuronal excitability | lowers resting potential and suppresses action potential firing | dramatically reduces firing rate | drove cellular response, as expected |
| O=C1c2ccccc2C(Cc2ccncc2)(Cc2ccncc2)c2ccccc21 [XE-991] |  |  |  |  |  | drove cellular response, as expected |
| Nc1nnc(-c2cccc(Cl)c2Cl)c(N)n1 [lamotrigine] | moves behavior away from both WT and KO | perturbed behavior but did not reverse the phenotype |  |  |  |  |
